{"source": "patent US20080107619A1", "about": "“Carbohydrate based cellulase inhibitors as feeding stimulants in termites” (University of Florida Research Foundation, Inc., priority 2006, published 2008)", "tested_on": "R. flavipes worker termites", "experiment": "No-choice Petri dish in vivo feeding bioassay (feeding and mortality, 24 days)", "settings": "for Normalized Avg. Totals: relative to control [0] average; for maximum mortality: after 24 days", "experimental": "R. flavipes colonies were collected from the University of Florida campus during spring and summer 2006. Colonies were maintained in sealed plastic boxes (30×24×10 cm) at 22±1° C. and 69±1% RH. Colonies were maintained without soil and provisioned with moist brown paper towels and wood shims. Colonies that were acclimated under the above conditions for <2 months are referred to as “field colonies”, while those held for >6 months are referred to as “lab colonies”. Unless otherwise stated, all studies reported here were run with lab colonies.\nTwo different termite colonies were used. A lab colony was used in bioassays that tested the effects of CBI and FMG; this was the same colony used in cellulase optimization studies, cellulase distribution studies, and for […] determination. The other colony was a field colony, which was used to repeat the FMG assay along side FMCB. The no-choice feeding bioassay was derived from a previously-developed and slightly modified caste differentiation assay reported by M. E. Scharf, et al. in “Caste differentiation responses of two sympatric Reticulitermes termite species to juvenile hormone homologs and synthetic juvenoids in two laboratory assays.” Insectes Soc. […] Acad. Sci. USA, 103 (2006) 4499-504.\nPrior to treatment, paper disks 30 were weighed. Treatments and controls were held in complete darkness at approximately 26±1° C. and 69±1% RH. The inhibitor concentrations tested were 75, 50, 25, 10, 5, 1, 0.5, and 0.1 mM (approximately […] wt/wt). For each inhibitor, paper disks were treated with 50 μl of a given concentration. Control disks received 50 μl methanol alone. Treated papers were allowed to dry in a fume hood for 30 min before placing in dishes, wetting with 25 μl water, and adding 15 termites.\nTermite feeding on the filter papers was readily observable and quantifiable from the bioassays. Average feeding through the entire bioassay was summed within each replicate and calculated as a percentage of feeding relative to untreated controls, then averaged across replicates.\nThe experimental design consisted of three replicate dishes per concentration. All assays were carried out for a total of 24 days. Termite mortality and filter paper moisture were monitored every 4th day. Every 8th day, old paper disks were replaced with new ones. These new filter paper disks were treated with identical inhibitor concentrations. The removed filter paper disks 30, showing the results of termite feeding (FIG. 6), were dried and re-weighed. At the end of each assay, data were summarized as cumulative feeding per live termite and cumulative termite mortality. Data were analyzed by non-parametric t-tests (p<0.05) with commercially-available software for use in statistical analysis, designed by SAS Institute, Cary, N.C.\nFIGS. 7A-7F provide graphic data on in vivo feeding bioassays conducted with the carbohydrate-based cellulase inhibitors to assess the impact on termite feeding and survivorship. Feeding results are expressed as the cumulative percent of untreated controls through 24 days. Mortality results are expressed as percent mortality after 24 days. […] Error bars represent standard error of the mean.", "key": {"[1]": {"settings": "0.1 mM test conc., 1st ROUND (lab colony)"}, "[2]": {"settings": "0.1 mM test conc., 2nd ROUND (field colony)"}, "[3]": {"settings": "0.5 mM test conc., 1st ROUND (lab colony)"}, "[4]": {"settings": "0.5 mM test conc., 2nd ROUND (field colony)"}, "[5]": {"settings": "1 mM test conc., 1st ROUND (lab colony)"}, "[6]": {"settings": "1 mM test conc., 2nd ROUND (field colony)"}, "[7]": {"settings": "5 mM test conc., 1st ROUND (lab colony)"}, "[8]": {"settings": "5 mM test conc., 2nd ROUND (field colony)"}, "[9]": {"settings": "10 mM test conc., 1st ROUND (lab colony)"}, "[10]": {"settings": "10 mM test conc., 2nd ROUND (field colony)"}, "[11]": {"settings": "25 mM test conc., 1st ROUND (lab colony)"}, "[12]": {"settings": "25 mM test conc., 2nd ROUND (field colony)"}, "[13]": {"settings": "50 mM test conc., 1st ROUND (lab colony)"}, "[14]": {"settings": "50 mM test conc., 2nd ROUND (field colony)"}, "[15]": {"settings": "75 mM test conc., 1st ROUND (lab colony)"}, "[16]": {"settings": "75 mM test conc., 2nd ROUND (field colony)"}}, "note": "Entries after “also recorded” stand apart in the source; their conditions may differ.", "data": [{"substance": "fluoromethyl glucose [FMG]", "values": [{"measurement": "Average Feeding in mg per Live Termite (std. err.) days 1-8", "setting": "[1]", "value": "0.52 (0.03) mg per Live Termite"}, {"measurement": "Average Feeding in mg per Live Termite (std. err.) days 9-16", "setting": "[1]", "value": "0.48 (0.10) mg per Live Termite"}, {"measurement": "Average Feeding in mg per Live Termite (std. err.) days 17-24", "setting": "[1]", "value": "0.45 (0.04) mg per Live Termite"}, {"measurement": "Normalized Avg. Totals", "setting": "[1]", "value": 0.98}, {"measurement": "Average Feeding in mg per Live Termite (std. err.) days 1-8", "setting": "[2]", "value": "0.20 (0.04) mg per Live Termite"}, {"measurement": "Average Feeding in mg per Live Termite (std. err.) days 9-16", "setting": "[2]", "value": "0.33 (0.05) mg per Live Termite"}, {"measurement": "Average Feeding in mg per Live Termite (std. err.) days 17-24", "setting": "[2]", "value": "0.48 (0.07) mg per Live Termite"}, {"measurement": "Normalized Avg. Totals", "setting": "[2]", "value": 0.92}, {"measurement": "Average Feeding in mg per Live Termite (std. err.) days 1-8", "setting": "[3]", "value": "0.57 (0.08) mg per Live Termite"}, {"measurement": "Average Feeding in mg per Live Termite (std. err.) days 9-16", "setting": "[3]", "value": "0.54 (0.07) mg per Live Termite"}, {"measurement": "Average Feeding in mg per Live Termite (std. err.) days 17-24", "setting": "[3]", "value": "0.44 (0.07) mg per Live Termite"}, {"measurement": "Normalized Avg. Totals", "setting": "[3]", "value": 0.96}, {"measurement": "Average Feeding in mg per Live Termite (std. err.) days 1-8", "setting": "[4]", "value": "0.34 (0.01) mg per Live Termite"}, {"measurement": "Average Feeding in mg per Live Termite (std. err.) days 9-16", "setting": "[4]", "value": "0.34 (0.03) mg per Live Termite"}, {"measurement": "Average Feeding in mg per Live Termite (std. err.) days 17-24", "setting": "[4]", "value": "0.47 (0.03) mg per Live Termite"}, {"measurement": "Normalized Avg. Totals", "setting": "[4]", "value": 1.03}, {"measurement": "Average Feeding in mg per Live Termite (std. err.) days 1-8", "setting": "[5]", "value": "0.55 (0.02) mg per Live Termite"}, {"measurement": "Average Feeding in mg per Live Termite (std. err.) days 9-16", "setting": "[5]", "value": "0.58 (0.03) mg per Live Termite"}, {"measurement": "Average Feeding in mg per Live Termite (std. err.) days 17-24", "setting": "[5]", "value": "0.51 (0.03) mg per Live Termite"}, {"measurement": "Normalized Avg. Totals", "setting": "[5]", "value": 0.92}, {"measurement": "Average Feeding in mg per Live Termite (std. err.) days 1-8", "setting": "[6]", "value": "0.36 (0.04) mg per Live Termite"}, {"measurement": "Average Feeding in mg per Live Termite (std. err.) days 9-16", "setting": "[6]", "value": "0.38 (0.01) mg per Live Termite"}, {"measurement": "Average Feeding in mg per Live Termite (std. err.) days 17-24", "setting": "[6]", "value": "0.39 (0.06) mg per Live Termite"}, {"measurement": "Normalized Avg. Totals", "setting": "[6]", "value": 1.04}, {"measurement": "Average Feeding in mg per Live Termite (std. err.) days 1-8", "setting": "[7]", "value": "0.39 (0.06) mg per Live Termite"}, {"measurement": "Average Feeding in mg per Live Termite (std. err.) days 9-16", "setting": "[7]", "value": "0.58 (0.07) mg per Live Termite"}, {"measurement": "Average Feeding in mg per Live Termite (std. err.) days 17-24", "setting": "[7]", "value": "0.39 (0.07) mg per Live Termite"}, {"measurement": "Normalized Avg. Totals", "setting": "[7]", "value": 0.72}, {"measurement": "Average Feeding in mg per Live Termite (std. err.) days 1-8", "setting": "[8]", "value": "0.29 (0.02) mg per Live Termite"}, {"measurement": "Average Feeding in mg per Live Termite (std. err.) days 9-16", "setting": "[8]", "value": "0.29 (0.03) mg per Live Termite"}, {"measurement": "Average Feeding in mg per Live Termite (std. err.) days 17-24", "setting": "[8]", "value": "0.43 (0.05) mg per Live Termite"}, {"measurement": "Normalized Avg. Totals", "setting": "[8]", "value": 0.92}, {"measurement": "Average Feeding in mg per Live Termite (std. err.) days 1-8", "setting": "[9]", "value": "0.32 (0.07) mg per Live Termite"}, {"measurement": "Average Feeding in mg per Live Termite (std. err.) days 9-16", "setting": "[9]", "value": "0.38 (0.09) mg per Live Termite"}, {"measurement": "Average Feeding in mg per Live Termite (std. err.) days 17-24", "setting": "[9]", "value": "0.41 (0.05) mg per Live Termite"}, {"measurement": "Normalized Avg. Totals", "setting": "[9]", "value": 0.93}, {"measurement": "Average Feeding in mg per Live Termite (std. err.) days 1-8", "setting": "[10]", "value": "0.17 (0.02) mg per Live Termite"}, {"measurement": "Average Feeding in mg per Live Termite (std. err.) days 9-16", "setting": "[10]", "value": "0.25 (0.02) mg per Live Termite"}, {"measurement": "Average Feeding in mg per Live Termite (std. err.) days 17-24", "setting": "[10]", "value": "0.45 (0.04) mg per Live Termite"}, {"measurement": "Normalized Avg. Totals", "setting": "[10]", "value": 0.79}, {"measurement": "Average Feeding in mg per Live Termite (std. err.) days 1-8", "setting": "[11]", "value": "0.27 (0.04) mg per Live Termite"}, {"measurement": "Average Feeding in mg per Live Termite (std. err.) days 9-16", "setting": "[11]", "value": "0.22 (0.05) mg per Live Termite"}, {"measurement": "Average Feeding in mg per Live Termite (std. err.) days 17-24", "setting": "[11]", "value": "0.34 (0.02) mg per Live Termite"}, {"measurement": "Normalized Avg. Totals", "setting": "[11]", "value": 0.83}, {"measurement": "Average Feeding in mg per Live Termite (std. err.) days 1-8", "setting": "[12]", "value": "0.25 (0.04) mg per Live Termite"}, {"measurement": "Average Feeding in mg per Live Termite (std. err.) days 9-16", "setting": "[12]", "value": "0.31 (0.05) mg per Live Termite"}, {"measurement": "Average Feeding in mg per Live Termite (std. err.) days 17-24", "setting": "[12]", "value": "0.40 (0.02) mg per Live Termite"}, {"measurement": "Normalized Avg. Totals", "setting": "[12]", "value": 0.87}, {"measurement": "Average Feeding in mg per Live Termite (std. err.) days 1-8", "setting": "[13]", "value": "0.30 (0.01) mg per Live Termite"}, {"measurement": "Average Feeding in mg per Live Termite (std. err.) days 9-16", "setting": "[13]", "value": "0.34 (0.01) mg per Live Termite"}, {"measurement": "Average Feeding in mg per Live Termite (std. err.) days 17-24", "setting": "[13]", "value": "0.34 (0.02) mg per Live Termite"}, {"measurement": "Normalized Avg. Totals", "setting": "[13]", "value": 0.99}, {"measurement": "Average Feeding in mg per Live Termite (std. err.) days 1-8", "setting": "[14]", "value": "0.25 (0.02) mg per Live Termite"}, {"measurement": "Average Feeding in mg per Live Termite (std. err.) days 9-16", "setting": "[14]", "value": "0.28 (0.03) mg per Live Termite"}, {"measurement": "Average Feeding in mg per Live Termite (std. err.) days 17-24", "setting": "[14]", "value": "0.29 (0.01) mg per Live Termite"}, {"measurement": "Normalized Avg. Totals", "setting": "[14]", "value": 0.74}, {"measurement": "Average Feeding in mg per Live Termite (std. err.) days 1-8", "setting": "[15]", "value": "0.17 (0.03) mg per Live Termite"}, {"measurement": "Average Feeding in mg per Live Termite (std. err.) days 9-16", "setting": "[15]", "value": "0.21 (0.02) mg per Live Termite"}, {"measurement": "Average Feeding in mg per Live Termite (std. err.) days 17-24", "setting": "[15]", "value": "0.28 (0.02) mg per Live Termite"}, {"measurement": "Normalized Avg. Totals", "setting": "[15]", "value": 0.67}, {"measurement": "Average Feeding in mg per Live Termite (std. err.) days 1-8", "setting": "[16]", "value": "0.21 (0.03) mg per Live Termite"}, {"measurement": "Average Feeding in mg per Live Termite (std. err.) days 9-16", "setting": "[16]", "value": "0.19 (0.07) mg per Live Termite"}, {"measurement": "Average Feeding in mg per Live Termite (std. err.) days 17-24", "setting": "[16]", "value": "0.27 (0.05) mg per Live Termite"}, {"measurement": "Normalized Avg. Totals", "setting": "[16]", "value": 0.60}, {"measurement": "Effect on feeding (cumulative percent of untreated controls through 24 days)", "setting": "across tested concentrations 0.1-75 mM, FIGS. 7A-7C, 8A-8B", "value": "did not stimulate consumption at any concentration; also recorded: little stimulatory effects at any concentration"}, {"measurement": "mortality, field colony termites", "setting": "field colony, FIG. 13", "value": "approximately 30%"}, {"measurement": "maximum mortality", "setting": "highest FMG concentration, FIG. 7D (2 colonies averaged)", "value": "approximately 20%"}, {"measurement": "maximum mortality", "setting": "highest concentration tested, FIG. 10A", "value": 10, "unit": "%"}, {"measurement": "mortality, lab colony termites", "setting": "lab colony, FIG. 13", "value": "2-3%"}]}]}
